Reference: US7414173B1, “Isolated nucleic acid molecules encoding orally active androctonus amoreuxi pesticidal biopeptides” (E.I. du Pont de Nemours and Company, priority 2002, dated 2008)

B1: Ts7: polypeptide set forth in SEQ ID NO:22 and 24, identified from a Centruroides vittatus telsons cDNA library (protein)
chain 1: MKFFLIVSLAIMSCFMEMKEVYAGTKGNFPVDFQGIFYECIVYNRCERDCKLHGSSYGYCYAGVCYCEGLADEDKYFLGM
chain 2: GTKGNFPVDFQGIFYECIVYNRCERDCKLHGSSYGYCYAGVCYCEGLADEDKYFLGM

Key:
[1] = tested on: corn plant hopper Perigrinus maidis; test: Screening of Androctonus amoreuxi venom fractions for Homopteran activity; type: in vivo; conditions: HPLC fractions of venom
Description: This assay can be used for a variety of homopterans including, but not limited to, Myzus persicae and Perigrinus maidis. The assay involves trapping the sample between two layers of maximally stretched parafilm which act as a sachet on top of a small vessel containing the insect of choice.
The assay was prepared as follows: 1 cm diameter polystyrene tubing was cut into 15 mm lengths. One end of the tube was then capped with a fine mesh screen. Five insects were then added to the chamber after which the first layer of parafilm was stretched over the remaining open end. 25 μl of sample (polypeptide in a 5% sucrose solution containing McCormick green food coloring) was then placed on top of the stretched parafilm. A second layer of parafilm was then stretched by hand and placed over the sample. […] The assay tubes were monitored for insect reproduction and death on a 24 hour basis and compared to a 5% sucrose control.
Initial screening of five minute fractions of the venom from Androctonus amoreuxi indicated activity against the corn plant hopper Perigrinus maidis. […] Sufficient quantities of this purified protein were collected to allow confirmation of activity and to initiate protein sequencing by Edmund degradation as described in Example 2. The mature sequence was determined to be that indicated in SEQ ID NO:20. […]

[2] = tested on: embryonic neuronal cultures of the American cockroach Periplaneta americana; test: Fluorescence imaging ratiometric assay; type: cell-based; conditions: Fluo-4 AM loaded neuronal cells
From the text: Embryonic neuronal cultures of the American cockroach Periplaneta americana were established following the method of Beadle and Lees (See Beadle D. J. and Lees G., Chapter 5 in Cell Culture Approaches to Invertebrate Neuroscience, Beadle, D. J., Lees, G. and Kater, S. B. (eds.) Academic Press, New York 1988) with minor modification. Briefly, 24-day old oothecae were collected, surface-sterilized and cut open one third below the dorsal midline. The heads were then removed and placed in Schneider's Drosophila medium. Using fine forceps 32 brains were individually removed and placed in a small glass vial containing 790 μl of ‘5+4’ medium. […]
Cells were rinsed in standard physiological saline having the following composition (mM): NaCl 190; CaCl2 9; KCl 3.1; probenicid 1; Tris buffer 10; pH 7.2. […] Individual wells from the 96-well plate were sequentially excited with light at 495 nm and the emitted fluorescence at 530 nm detected using a Hamamatsu ORCA ER digital camera.
Acquisition control, image processing and image analysis were conducted using Universal Imaging Corporation's MetaMorph™ imaging software. […] Individual cells were separated and identified based on meeting designated morphometric criteria for total size and shape as previously determined experimentally for this cell type. […]

[3] = tested on: Myzus persicae (Green Peach Aphid); test: Aphid bioassay on transgenic Arabidopsis thaliana events; type: in vivo; conditions: 35S promoter, versus controls
From the text: cDNAs encoding potential sodium channel neurotoxins were identified from sequence data derived from a cDNA library of Centruroides vittatus telsons. […] Full length genes were PCR amplified with oligonucleotide primers introducing restriction enzyme sites at the 5′ and 3′ ends of the gene. The PCR products were TOPO-cloned into pCR2.1 (Invitrogen Co.) and the sequence was confirmed. The resulting constructs were then cloned into a binary vector between the Cauliflower mosaic virus 35S promoter and the NOS termination signal. The binary vector also contained a selection marker cassette including the Cauliflower mosaic 35S promoter, the BAR gene, and NOS terminator.
Binary constructs were electroporated into Agrobacterium tumefaciens strain C58. Transformed Agrobacterium cultures were grown in YM media for 2 days at 28° C. to an OD600 of approximately 1.0. Cells were pelleted by centrifugation and resuspended at the original culture volume in 5% sucrose with 0.05% Silwet L-77. The Agrobacterium slurry was sprinkled onto the inflorescences of flowering Arabidopsis thaliana (Landberg) plants using a 10-25 ml pipette. […]
Bioassays were performed on individual transformation events enclosed within plastic tubes with a fine mesh screen at the top to confine the aphids. […] Plants were scored for total number of adult aphids and nymphs at various intervals post infestation.

Molecule	activity against the corn plant hopper Perigrinus maidis (Homopteran activity) [1]	changes in Fluo-4 fluorescence (intracellular free calcium) [2]	aphid resistance (total number of adult aphids and nymphs) [3]
Aam1 (ADVPGNYPLDSSDNTYLCAPLGDNPDCIKICQKHGVDYGYCYAFQCWCEFLKDENVKV)	Homopteran activity was then found to be associated	changes in fluorescence characteristic of a sodium channel agonist	–
B1	–	–	greater degree of aphid resistance than controls
